According to ChEMBL document CHEMBL6182861, “Structural modification of heptamethine indocyanine dyes with improved aqueous solubility and stability for photothermal therapy” (Eur J Med Chem, 2025):
The source made the active and inactive calls. The calls are words filed in the database; no cut-off is given here.

Key:
[1] = Photothermal property of compound assessed as increase in photothermal conversion efficiency at 20 uM exposed to laser irradiation of 808 nm for 2 mins; assay type: functional
[2] = Aqueous solubility of compound by absorbance based assay; assay type: physicochemical; conditions: buffer
[3] = Photothermal stability of compound at 60 degreeC at 20 uM exposed to laser irradiation of 808 nm for 2.5 mins; assay type: physicochemical
[4] = Photosensitizing property of compound assessed as generation of singlet-state oxygen by ESR spectrometry; assay type: functional
[5] = Photosensitizing property of compound assessed as generation of singlet-state oxygen at 10 uM exposed to laser irradiation of 808 nm for 2 mins by SOSG probe based analysis; assay type: functional
[6] = Drug uptake in mouse 4T1 cells assessed as increase in fluorescence intensity at 3.12 uM incubated for 4 hrs by flow cytometry; assay type: ADME, cell-based; conditions: 4t1, 4 h
[7] = Drug uptake in human HepG2 cells assessed as increase in fluorescence intensity at 3.12 uM incubated for 4 hrs by flow cytometry; assay type: ADME, cell-based; conditions: hepg2, 4 h
[8] = Drug uptake in mouse 4T1 cells assessed as increase in fluorescence intensity at 3.12 uM incubated for 4 hrs by CLSM; assay type: ADME, cell-based; conditions: 4t1, 4 h
[9] = Drug uptake in human HepG2 cells assessed as increase in fluorescence intensity at 3.12 uM incubated for 4 hrs by CLSM; assay type: ADME, cell-based; conditions: hepg2, 4 h
[10] = system: 4T1; assay: Cytotoxicity against mouse 4T1 cells under dark condition at 3.12 uM incubated for 24 hrs by MTT assay; assay type: functional, cell-based
[11] = system: HepG2; assay: Cytotoxicity against human HepG2 cells under dark condition at 3.12 uM incubated for 24 hrs by MTT assay; assay type: functional, cell-based
[12] = system: 4T1; assay: Induction of ROS generation in mouse 4T1 cells at 3.12 uM incubated for 4 hrs followed by exposure to laser irradiation of 808 nm for 2 mins by flow cytometry; assay type: functional, cell-based; conditions: time 242.0 min
[13] = system: 4T1; assay: Induction of ROS generation in mouse 4T1 cells at 3.12 uM incubated for 4 hrs followed by exposure to laser irradiation of 808 nm for 2 mins by DCFH-DA probe based CLSM; assay type: functional, cell-based; conditions: time 242.0 min
[14] = system: HepG2; assay: Induction of ROS generation in human HepG2 cells at 3.12 uM incubated for 4 hrs followed by exposure to laser irradiation of 808 nm for 2 mins by flow cytometry; assay type: functional, cell-based; conditions: time 242.0 min
[15] = system: HepG2; assay: Induction of ROS generation in human HepG2 cells at 3.12 uM incubated for 4 hrs followed by exposure to laser irradiation of 808 nm for 2 mins by DCFH-DA probe based CLSM; assay type: functional, cell-based; conditions: time 242.0 min
[16] = system: Mitochondrial membrane; assay: Inhibition of mitochondrial membrane potential in mouse 4T1 cells at 3.12 uM preincubated for 4 hrs followed by exposure to laser irradiation of 808 nm for 2 mins and subsequent incubation for 20 hrs by flow cytometry; assay type: cell membranes; conditions: time 1442.0 min
[17] = system: Mitochondrial membrane; assay: Inhibition of mitochondrial membrane potential in mouse 4T1 cells at 3.12 uM preincubated for 4 hrs followed by exposure to laser irradiation of 808 nm for 2 mins and subsequent incubation for 20 hrs by Rh123 probe based CLSM; assay type: cell membranes; conditions: time 1442.0 min
[18] = system: Mitochondrial membrane; assay: Inhibition of mitochondrial membrane potential in human HepG2 cells at 3.12 uM preincubated for 4 hrs followed by exposure to laser irradiation of 808 nm for 2 mins and subsequent incubation for 20 hrs by flow cytometry; assay type: cell membranes; conditions: time 1442.0 min
[19] = system: Mitochondrial membrane; assay: Inhibition of mitochondrial membrane potential in human HepG2 cells at 3.12 uM preincubated for 4 hrs followed by exposure to laser irradiation of 808 nm for 2 mins and subsequent incubation for 20 hrs by Rh123 probe based CLSM; assay type: cell membranes; conditions: time 1442.0 min
[20] = system: Mitochondrial membrane; assay: Inhibition of mitochondrial membrane potential in mouse 4T1 cells at 3.12 uM incubated for 24 hrs by flow cytometry; assay type: cell membranes
[21] = system: Mitochondrial membrane; assay: Inhibition of mitochondrial membrane potential in mouse 4T1 cells at 3.12 uM incubated for 24 hrs by Rh123 probe based CLSM; assay type: cell membranes
[22] = system: Mitochondrial membrane; assay: Inhibition of mitochondrial membrane potential in human HepG2 cells at 3.12 uM incubated for 24 hrs by flow cytometry; assay type: cell membranes
[23] = system: Mitochondrial membrane; assay: Inhibition of mitochondrial membrane potential in human HepG2 cells at 3.12 uM incubated for 24 hrs by Rh123 probe based CLSM; assay type: cell membranes
[24] = system: Mitochondrial membrane; assay: Inhibition of mitochondrial membrane potential in mouse 4T1 cells assessed as green fluorescence at 3.12 uM preincubated for 4 hrs followed by exposure to laser irradiation of 808 nm for 2 mins and subsequent incubation for 20 hrs by JC-1 dye based analysis; assay type: cell membranes; conditions: time 1442.0 min
[25] = system: Mitochondrial membrane; assay: Inhibition of mitochondrial membrane potential in human HepG2 cells assessed as green fluorescence at 3.12 uM preincubated for 4 hrs followed by exposure to laser irradiation of 808 nm for 2 mins and subsequent incubation for 20 hrs by JC-1 dye based analysis; assay type: cell membranes; conditions: time 1442.0 min
[26] = system: 4T1; assay: Induction of apoptosis in mouse 4T1 cells at 3.12 uM incubated for 4 hrs followed by exposure to laser irradiation of 808 nm for 2 mins by Annexin V-FITC/PI staining based flow cytometry; assay type: functional, cell-based; conditions: time 242.0 min
[27] = system: HepG2; assay: Induction of apoptosis in human HepG2 cells at 3.12 uM incubated for 4 hrs followed by exposure to laser irradiation of 808 nm for 2 mins by Annexin V-FITC/PI staining based flow cytometry; assay type: functional, cell-based; conditions: time 242.0 min
[28] = system: HepG2; assay: Photothermal cytotoxicity against human HepG2 cells up to 25 uM preincubated for 4 hrs followed by exposure to laser irradiation of 808 nm for 2 mins and subsequent incubation for 20 hrs by MTT assay; assay type: functional, cell-based; conditions: time 1442.0 min
[29] = system: 4T1; assay: Photothermal cytotoxicity against mouse 4T1 cells up to 25 uM preincubated for 4 hrs followed by exposure to laser irradiation of 808 nm for 2 mins and subsequent incubation for 20 hrs by MTT assay; assay type: functional, cell-based

Row | SMILES | Stability [3] | Activity [4] | Activity [5] | Drug uptake [6] | Drug uptake [7] | Drug uptake [8] | Drug uptake [9] | Activity [12] | Activity [13] | Activity [14] | Activity [15] | inhibition [16] | inhibition [17] | inhibition [18] | inhibition [19] | inhibition [20] | inhibition [21] | inhibition [22] | inhibition [23] | Activity [26] | further results
1 | COCCOCCOCCN1/C(=C/C=C/C(C#N)=C/C=C/C2=[N+](CCOCCOCCOC)c3ccccc3C2(C)C)C(C)(C)c2ccccc21.[I-] | Stable | Active | Active | Active | Active | Active | Active | Active | Active | Active | Active | Active; Significant Inhibition Was Observed | Active; Significant Inhibition Was Observed | Active; Significant Inhibition Was Observed | Active; Significant Inhibition Was Observed | Active; Certain Degree Of Inhibition Was Observed | Active; Certain Degree Of Inhibition Was Observed | Active; Certain Degree Of Inhibition Was Observed | Active; Certain Degree Of Inhibition Was Observed | Active | Activity [1]: 0.7%; solubility [2]: soluble; Activity [10]: Active; Activity [11]: Active; inhibition [24]: Active; inhibition [25]: Active; Activity [27]: Active
2 | CN1/C(=C/C=C/C(C#N)=C/C=C/C2=[N+](C)c3ccccc3C2(C)C)C(C)(C)c2ccccc21.[I-] | Stable | Active | Active | Active | Active | Active | Active | Active | Active | Active | Active | Active; Significant Inhibition Was Observed | Active; Significant Inhibition Was Observed | Active; Significant Inhibition Was Observed | Active; Significant Inhibition Was Observed | Active; Certain Degree Of Inhibition Was Observed | Active; Certain Degree Of Inhibition Was Observed | Active; Certain Degree Of Inhibition Was Observed | Active; Certain Degree Of Inhibition Was Observed | Active | Activity [10]: Active; Activity [11]: Active; inhibition [24]: Active; inhibition [25]: Active; Activity [27]: Active
3 | COCCOCCOCCN1/C(=C/C=C/C=C/C=C/C2=[N+](CCOCCOCCOC)c3ccccc3C2(C)C)C(C)(C)c2ccccc21.[I-] | Unstable | Active | Active | Active | Active | Active | Active | Active; Exhibited Highest Activity Among Tested Compounds | Active; Exhibited Highest Activity Among Tested Compounds | Active; Exhibited Highest Activity Among Tested Compounds | Active; Exhibited Highest Activity Among Tested Compounds | Active; Significant Inhibition Was Observed | Active; Significant Inhibition Was Observed | Active; Significant Inhibition Was Observed | Active; Significant Inhibition Was Observed | Active; Certain Degree Of Inhibition Was Observed | Active; Certain Degree Of Inhibition Was Observed | Active; Certain Degree Of Inhibition Was Observed | Active; Certain Degree Of Inhibition Was Observed | Active | Activity [1]: 5.2%; Activity [28]: Active; Compound Was Less Photo-Thermally Effective But Showed Stronger Cell-Killing Ability; Activity [29]: Active; Compound Was Less Photo-Thermally Effective But Showed Stronger Cell-Killing Ability; inhibition [24]: Active; inhibition [25]: Active; Activity [27]: Active
4 | CN1/C(=C/C=C/C=C/C=C/C2=[N+](C)c3ccccc3C2(C)C)C(C)(C)c2ccccc21.[I-] | Unstable | Active | Active | Active | Active | Active | Active | Active | Active | Active | Active | Active; Significant Inhibition Was Observed | Active; Significant Inhibition Was Observed | Active; Significant Inhibition Was Observed | Active; Significant Inhibition Was Observed | Active; Certain Degree Of Inhibition Was Observed | Active; Certain Degree Of Inhibition Was Observed | Active; Certain Degree Of Inhibition Was Observed | Active; Certain Degree Of Inhibition Was Observed | Active | solubility [2]: Insoluble; Activity [28]: inactive; Activity [29]: inactive; Activity [27]: Active
5 | CC1(C)C(/C=C/C=C/C=C/C=C2\N(CCCCS(=O)(=O)O)c3ccc4ccccc4c3C2(C)C)=[N+](CCCCS(=O)(=O)[O-])c2ccc3ccccc3c21 | – | Active | inactive | – | – | – | – | – | – | – | – | – | – | – | – | – | – | – | – | – | –
